Assay results as given in patent US10675267B2, “Methods for detection and eradication of myeloid leukemia stem cells” (priority 2015, dated 2020).
“Also recorded” adds a separate entry of the source.

How the values were obtained:
[1] = test system: CD34+ cells from normal cord blood; experiment: SL/M2 stromal co-culture with colony and replating assays, cord blood; format: cell-based, human; conditions: even at high doses
Protocol: In hypothesis-driven experiments, the splicing modulatory compound 17S-FD-895 was tested to determine efficacy in altering splicing activity in cell lines, and to evaluate effects on AML LSC survival and self-renewal capacity in humanized bone marrow stromal co-cultures and in PRIMAGRAFT™ AML LSC models. Cell culture experiments were performed using 293T and sAML (MOLM-13) cell lines, and SL and M2 bone marrow stromal cell lines. Animal studies were performed using immunocompromised Rag2−/−γc−/−[20] or NOD/SCID-IL2RG mice (Jackson Laboratory, Bar Harbor, Me.). Primary AML and normal control samples were used in in vitro hematopoietic stem and progenitor assays after bone marrow stromal co-culture and treatment with splicing modulatory compounds (FD-895 or 17S-FD-895) or vehicle control (DMSO). Colony formation potential and self-renewal capacity were assessed by counting colony numbers (survival) after two weeks of growth in semi-solid (methylcellulose) media, and subsequent replating capacity (self-renewal) was assessed after transfer to fresh methylcellulose for an additional two weeks of culture. […]

[2] = test system: MOLM-13 cells; experiment: In vitro splicing of endogenous transcripts (qRT-PCR, RT-PCR) in MOLM-13; format: cell-based
Protocol: For qRT-PCR analysis of relative total mRNA expression levels or splice isoform-specific expression analyses, cDNA was synthesized using 50 ng-1 […] of template RNA in 20 μL reaction volumes using the First-Strand SUPERSCRIPT™ III Reverse Transcriptase Supermix (Life Technologies) followed by incubation with RNase H according to the manufacturer's protocol and as described previously. All cDNA products were stored at −20° C. Splice isoform-specific primers for PTK2B-202 were designed to bind to unique exon junctions for this transcript, which lacks exon 24. All primers (Table 2) were diluted to 10 μM working dilutions in DNase/RNase-free water. qRT-PCR was performed in duplicate using cDNA (1 μL reverse transcription product per reaction) on an iCycler (Bio-Rad, Hercules, Calif.) using SYBR® GREENER™ Super Mix (Life Technologies) in 25-μL volume reactions containing 0.2 μM of each forward and reverse primer. Cycling conditions were as follows: 50° C. for 2 minutes, then 95° C. for 8 minutes and 30 seconds, followed by 40 cycles of 95° C. for 15 seconds and 60° C. for 60 seconds. Melting curve analysis was performed on each plate according to the manufacturer's instructions. For standard qRT-PCR, human HPRT mRNA transcript levels were used to normalize Ct values obtained for each gene, and relative expression levels were calculated using the 2^−ddCt method. To ensure validity of results, only Ct values <35 were used in gene expression analyses. All primer sets were tested in a no-template control (NTC) reaction containing only water instead of cDNA, and all gave Ct values >35 in NTC reactions.
For evaluation of in vitro splicing activity of endogenous transcripts in HEK293 or a sAML cell line, MOLM-13 (mycoplasma-free and cytogenetically-authenticated cell lines obtained from DMSZ), cells were plated in complete media (DMEM containing 10% FBS for HEK293 and RPMI containing 20% FBS for MOLM-13). The next day, FD-895, 17S-FD-895 or DMSO vehicle controls were added at doses ranging from 0.01-10 μM for 4 hrs of treatment. Cells were lysed in RLT buffer (Qiagen) and processed for RNA extraction and subsequent PCR analyses using primers specific for DNAJB1 or MCL1 (Table 2). For all experiments in cell line, cells obtained from the vendors were frozen down in bulk at low passage numbers and used within 20 passages to minimize risk of cell line misidentification or acquisition of additional chromosomal abnormalities.
For qRT-PCR analysis of relative total mRNA expression levels or splice isoform-specific expression analyses, cDNA was synthesized using 50 ng-1 […] reaction volumes using the First-Strand SUPERSCRIPT™ III Reverse Transcriptase Supermix (Life Technologies) followed by incubation with RNase H according to the manufacturer's protocol and as described previously (Abrahamsson et al., 2009; Crews et al., 2015). All cDNA products were stored at −20° C. Splice isoform-specific primers for PTK2B-202 were designed to bind to unique exon junctions for this transcript, which lacks exon 24. All primers (Supplemental Experimental Procedures Table) were diluted to 10 ∝M working dilutions in DNase/RNase-free water. qRT-PCR was performed in duplicate using cDNA (1 ∝Λ reverse transcription product per reaction) on an iCycler (Bio-Rad, Hercules, Calif.) using SYBR® GREENER™ Super Mix (Life Technologies) in 25-∝A volume reactions containing 0.2 ∝M of each forward and reverse primer. Cycling conditions were as follows: 50° C. for 2 minutes, then 95° C. for 8 minutes and 30 seconds, followed by 40 cycles of 95° C. for 15 seconds and 60° C. for 60 seconds. Melting curve analysis was performed on each plate according to the manufacturer's instructions. For standard qRT-PCR, human HPRT mRNA transcript levels were used to normalize Ct values obtained for each gene, and relative expression levels were calculated using the 2-ddCt method. To ensure validity of results, only Ct values <35 were used in gene expression analyses. […]

For `CC[C@H](OC)[C@@H](C)[C@H]1O[C@@H]1[C@@H](O)[C@H](C)/C=C/C=C(\C)[C@H]1OC(=O)C[C@H](O)CC[C@@](C)(O)[C@@H](OC(C)=O)/C=C/[C@@H]1C` (stereo in doubt) [Formula 17S-FD-895, 17S-FD-895], the “normal CB samples, survival and self-renewal” value [1] was “unaffected”, the “EC50 of the 1 μM treatment condition (time course of DNAJB1 intron 2 retention)” value ([2]; MOLM-13, 1 μM, 30 mins-24 hrs, qRT-PCR, 95% C.I.) was 3.2 to 6.5 h and the “MCL1-S expression (qRT-PCR)” value ([2]; MOLM-13, 0.01-10 μM, 4 hrs) was “low doses of 17S-FD-895 increased MCL1-S expression, this effect was reversed at high doses”. The “PTK2B-202 expression (isoform-specific qRT-PCR)” value ([2]; MOLM-13, short-term treatment) was “reduced expression”, the “time at which the increase in DNAJB1 intron 2 levels occurred after initiation of treatment” value ([2]; MOLM-13 sAML cells) was 30 min and the “DNAJB1 intron 2 retention” value ([2]; MOLM-13 sAML cells, 0.01-10 μM 4 hrs, time course 30 mins-24 hrs) was “rapid and dose-dependent increase; also recorded: time- and dose-dependent increase”. For the same molecule, the “MCL1 splicing pattern (RT-PCR, primers flanking exon 2)” value ([2]; MOLM-13 versus HEK293, 4 hrs) was “triggered MCL1 exon 2 skipping; also recorded: increased intron retention predominantly in sAML cells (MOLM-13)”.
